Laboratory results published in patent publication US20100190832A1, “Mechanism-based inhibitors of transthyretin amyloidosis: studies with biphenyl ethers and structural templates” (NATIONAL INSTITUTE OF IMMUNOLOGY., priority 2008, published 2010).
Read-outs that look alike come from different tables or passages of the source.

Key:
WT-TTR = target: T1, WT-TTR (Homo sapiens, UniProt P02766); assay: Stagnant acid-mediated TTR aggregation (fibril formation) assay, turbidity at 340 nm; type: biochemical; conditions: for remaining activity at 50 µM / remaining activity at 7.2 µM / remaining activity at 21.6 µM / remaining activity at 100 µM: 72 h; for remaining activity at 50 µM: read-out: % FF at 50 μM; for remaining activity at 100 µM / inhibition at 100 µM: pH 4.4, compound 100 μM; for remaining activity at 100 µM: read-out: % FF; for inhibition at 100 µM: read-out: % Inhibition
T1 construct: made in house
Protocol: Stagnant Acid-Mediated TTR Aggregation Assay.
After 1 h, the samples were diluted with 0.5 ml of 200 mM sodium acetate buffer containing 100 mM KCl and 1 mM EDTA. Samples after mild vortexing were incubated at 37° C. for the desired amount of time without stirring to evaluate the efficacy of the inhibitors. The extent of aggregation was probed by turbidity measurements at 340 nm using Tecan GENios microplate reader. […] The extent of TTR fibril formation in the absence of inhibitor was defined to be 100%. […] All experiments were done in triplicate. […] The IC50 was determined by plotting mean of % inhibition vs log and fitted to sigmoid equation:
The experiments were conducted at 25° C. After 1 h, the samples were diluted with 0.5 mL of 200 mM sodium acetate buffer pH 4.4 containing 100 mM KCl and 1 mM EDTA, vortexed, and incubated at 37° C. for 72 h. […] The stoichiometry of the binding of the inhibitors was determined by HPLC as described by Green et al., N. S. Palaninathan, S, L, Sacchettini, J. e. […] Dissociation constant of binding of these compounds to TTR was determined by fluorescence titration, and data were fitted into the Adair equation for two bind mg.

TTR = target: T2, TTR (Homo sapiens, UniProt P02766); assay: Time course (kinetics) of fibril formation, turbidity at 340 nm for 3 h; type: biochemical; conditions: TTR 7.2 μM, inhibitor 21.6 μM, 37° C., pH 4.4, 3 h
T2 construct: made in house
Protocol: Time Course of Fibril Formation. The kinetics of inhibition was studied by incubating […] TTR with […] of different inhibitors in 100 µl of 5 mM phosphate buffer pH 7.2 for 30 min in a 96 microwell plate. […] of 0.2 M sodium acetate buffer pH 4.4 containing 1 mM EDTA and 100 mM KCl was added. The difference in turbidity was assessed by measuring the change in absorbance at 340 nm on Tecan GEnios microplate reader using Magellan software. For kinetics, parameters were set for 30 cycles at 37° C. at the interval of 5 min each and 2 min orbital shaking (low speed) between cycles and 10 sec shaking (normal speed) before measurement. All experiments were performed in triplicates. Change in absorbance at 340 nm was plotted against time in the presence and absence of inhibitors initial rate of fibril formation was calculated from the slope by linear fitting of the data.
All experiments were performed three times in triplicates. Change in absorbance (mean of three different experiments) at 340 nm was plotted against time in the presence and absence of inhibitors. Initial rate of fibril form action was calculated from the value of the slope by linear fitting of the change in absorbance at 340 nm as a function of time.

[1] = biphenyl ether 50 μM, WT-TTR 7.2 μM
[2] = Table 3, WT-TTR 7.2 μM, read-out: IC50

## COc1cc(CCl)ccc1Oc1ccccc1 [Compound 8, 3-Methoxy-4-phenoxybenzyl chloride]
WT-TTR; 50% reduction in fibril formation, TTR 7.2 μM, pH 4.4, read-out: IC50 ± SE
  IC50: 1940 ± 90 nM
WT-TTR; [1]
  remaining activity at 50 µM: 0%
WT-TTR; pH 4.4, TTR 7.2 μM, inhibitor 7.2 μM (1:1), pH 4.4, 37° C., no inhibitor = 100%, read-out: % FF 1:1
  remaining activity at 7.2 µM: 25%
WT-TTR; pH 4.4, TTR 7.2 μM, inhibitor 21.6 μM (1:3), pH 4.4, 37° C., no inhibitor = 100%, read-out: % FF 1:3
  remaining activity at 21.6 µM: 0%
WT-TTR; TTR amyloid formation, 37° C., read-out: IC50
  IC50: 470 to 3500 nM
WT-TTR; [2]
  IC50: 1940 nM
TTR
  inhibition at 21.6 µM: > 80%

## Oc1cc(CCl)ccc1Oc1ccc(Cl)cc1Cl [Compound 3]
WT-TTR; pH 4.4, read-out: % FF 1:1
  remaining activity at 7.2 µM: 5%
WT-TTR; pH 4.4, read-out: % FF 1:3
  remaining activity at 21.6 µM: 0%
WT-TTR
  remaining activity at 50 µM: 0%
TTR
  inhibition at 21.6 µM: > 80%

## Cc1ccccc1Nc1c(-c2ccc(Cl)s2)nc2ccc(Cl)cn12 [Compound C273-0244]
WT-TTR; WT-TTR 7.2 μM, pH 4.4, 37° C.
  remaining activity at 100 µM: 306%
  inhibition at 100 µM: 0%

## O=C(NC(c1ccco1)c1cc(Cl)c2cccnc2c1O)c1cccnc1 (centres unmarked) [Compound K839-0124]
WT-TTR; WT-TTR 7.2 μM, pH 4.4, 37° C.
  remaining activity at 100 µM: 36.7%
  inhibition at 100 µM: 63.3%

## O=Cc1ccc(Oc2ccc([N+](=O)[O-])cc2[N+](=O)[O-])c(O)c1 [Compound 17]
WT-TTR
  remaining activity at 50 µM: 40.5%
WT-TTR; [2]
  IC50: 55000 nM

## Clc1ccc2nc(-c3ccc(Cl)s3)c(NC3CCCCC3)n2c1 [Compound C273-0206]
WT-TTR; WT-TTR 7.2 μM, pH 4.4, 37° C.
  remaining activity at 100 µM: 138%
  inhibition at 100 µM: 0%

## COc1cccc(C(=O)NC(c2ccccc2)c2cc(Cl)c3cccnc3c2O)c1 (centres unmarked) [Compound K839-0116]
WT-TTR; WT-TTR 7.2 μM, pH 4.4, 37° C.
  remaining activity at 100 µM: 34.7%
  inhibition at 100 µM: 65.3%

## COc1cc(CO)ccc1Oc1ccc([N+](=O)[O-])cc1 [Compound 15]
WT-TTR; [1]
  remaining activity at 50 µM: 89.5%

## COc1ccc(C2NC(C(=O)O)CS2)cc1OC (centres unmarked) [Compound K085-0007]
WT-TTR; WT-TTR 7.2 μM, pH 4.4, 37° C.
  remaining activity at 100 µM: 129%
  inhibition at 100 µM: 0%

## O=C1/C(=C/c2ccc(Cl)cc2Cl)SC(=S)N1c1ccc(O)cc1 [Compound 2189-0835]
WT-TTR; WT-TTR 7.2 μM, pH 4.4, 37° C.
  remaining activity at 100 µM: 291%
  inhibition at 100 µM: 0%

## O=C(CSc1nccn1-c1cccc(Cl)c1)Nc1cccc2ccccc12 [Compound C262-0464]
WT-TTR; WT-TTR 7.2 μM, pH 4.4, 37° C.
  remaining activity at 100 µM: 122%
  inhibition at 100 µM: 0%

## O=C(c1cc(-c2ccc(Cl)s2)nc2ccccc12)N1CCOCC1 [Compound C136-0215]
WT-TTR; WT-TTR 7.2 μM, pH 4.4, 37° C.
  remaining activity at 100 µM: 156%
  inhibition at 100 µM: 0%

## COc1cc(COC(C)=O)ccc1Oc1ccc([N+](=O)[O-])cc1[N+](=O)[O-] [Compound 20]
WT-TTR; [1]
  remaining activity at 50 µM: 69%

## Cc1cc(C(=O)Nc2cccnc2Cl)no1 [Compound C226-2576]
WT-TTR; WT-TTR 7.2 μM, pH 4.4, 37° C.
  remaining activity at 100 µM: 130%
  inhibition at 100 µM: 0%

## CCCCN1CCc2nc3c(ccc4ccccc43)c(O)c2C1 [Compound 3453-1352]
WT-TTR; WT-TTR 7.2 μM, pH 4.4, 37° C.
  remaining activity at 100 µM: 75.7%
  inhibition at 100 µM: 24.3%

## COC(=O)c1sc(=S)n(-c2ccc(Cl)c(Cl)c2)c1N [Compound K286-4369]
WT-TTR; WT-TTR 7.2 μM, pH 4.4, 37° C.
  remaining activity at 100 µM: 84.5%
  inhibition at 100 µM: 15.6%

## CCc1ccccc1NC(=S)N(CCN(C)C)Cc1cccs1 [Compound C087-0905]
WT-TTR; WT-TTR 7.2 μM, pH 4.4, 37° C.
  remaining activity at 100 µM: 108%
  inhibition at 100 µM: 0%

## Cc1nc2c(ccc3ccccc32)c(O)c1CN1CCCC1 [Compound 3453-1335]
WT-TTR; WT-TTR 7.2 μM, pH 4.4, 37° C.
  remaining activity at 100 µM: 66.9%
  inhibition at 100 µM: 33.1%

## Cn1c(=O)c2c(nc(Oc3ccc(-n4cnnn4)cc3)n2C)n(C)c1=O [Compound 3615-0252]
WT-TTR; WT-TTR 7.2 μM, pH 4.4, 37° C.
  remaining activity at 100 µM: 155%
  inhibition at 100 µM: 0%

## Cc1ccc2nc(-c3ccc(Cl)s3)c(Nc3ccc(Cl)cc3)n2c1 [Compound C239-0730]
WT-TTR; WT-TTR 7.2 μM, pH 4.4, 37° C.
  remaining activity at 100 µM: 113%
  inhibition at 100 µM: 0%

## CCOC(=O)c1c(N)sc(C(=O)NC2CCCCC2)c1C [Compound R052-1597]
WT-TTR; WT-TTR 7.2 μM, pH 4.4, 37° C.
  remaining activity at 100 µM: 58.1%
  inhibition at 100 µM: 41.9%

## CCOC(=O)c1sc(=S)n(-c2ccc(Br)cc2)c1N [Compound R052-0946]
WT-TTR; WT-TTR 7.2 μM, pH 4.4, 37° C.
  remaining activity at 100 µM: 164%
  inhibition at 100 µM: 0%

## CSC1=NSC2=NC(=O)/C(=C\c3ccc(Cl)cc3)C(=N)N12 [Compound C146-0181]
WT-TTR; WT-TTR 7.2 μM, pH 4.4, 37° C.
  remaining activity at 100 µM: 67.1%
  inhibition at 100 µM: 32.9%

## Cn1ncc(/N=C/c2ccccc2O)c1C(=O)N1CCOCC1 [Compound 2019-0006]
WT-TTR; WT-TTR 7.2 μM, pH 4.4, 37° C.
  remaining activity at 100 µM: 50%
  inhibition at 100 µM: 50%
